Here are results for 15 compounds from BindingDB's records for doi:10.1016/S0960-894X(01)80278-X (n/a, 1994).

A short description of this test: Antiviral activity against HIV-1 in CEM cells.

pIC50: −log10 of the molar value. Starred links: 1 amine or outer side, 2 acyl side, 3 side chain; linkers in the order of their positions; H or OH if unused. Non-standard residues stand in square brackets, D forms with d. Residues, ends and D or L forms follow the SMILES beside them. *: point of attachment. X2 = C=CCN([C@@H](C)C(=O)[*:2])[*:1]; X1 = O=C(CN(CC(Br)CBr)[*:1])[*:2]; X3 = O=C(CN(CC(Cl)CCl)[*:1])[*:2]; NAllylGly = C=CCNCC(=O)O; Boc = CC(C)(C)OC(=O)*

Usually pIC50 stands for the negative decadic logarithm of the IC50, by convention in mol/L. A low value points to a high IC50. With `CC[C@H](C)[C@H](NC(=O)CN(CC(Cl)CCl)C(=O)[C@H](Cc1ccccc1)NC(=O)OC(C)(C)C)C(=O)N[C@H](C(=O)OC)C(C)C` (stereo not given in full), the pIC50 is less than 4.30. Then `CC[C@H](C)[C@H](NC(=O)CN(CC(Br)CBr)C(=O)[C@H](Cc1ccccc1)NC(=O)OC(C)(C)C)C(=O)N[C@H](C(=O)OC)C(C)C` (stereo not given in full), with 4.25. For the compound `C=CCN(C(=O)[C@H](Cc1ccccc1)NC(=O)OC(C)(C)C)[C@@H](C)C(=O)N[C@H](C(=O)N[C@H](C(=O)OC)C(C)C)[C@@H](C)CC`, the pIC50 was less than 4.78. Next, `C=CCNCC(=O)N[C@H](C(=O)N[C@H](C(=O)OC)C(C)C)[C@@H](C)CC`: less than 3.71. `C=CCN(CC(=O)N[C@H](C(=O)N[C@H](C(=O)OC)C(C)C)[C@@H](C)CC)C(=O)OC(C)(C)C` showed a pIC50 of less than 3.65.

`C=CCN(C(=O)[C@H](Cc1ccccc1)NC(=O)[C@H](C)NC(=O)[C@H](C)NC(=O)OC(C)(C)C)[C@@H](C)C(=O)N[C@H](C(=O)N[C@H](C(=O)OC)C(C)C)[C@@H](C)CC` (Boc-AAF[X2]IV-OMe) had a pIC50 of 5.41. `C=CCN(CC(=O)N[C@H](C(=O)N[C@H](C(=O)OC)C(C)C)[C@@H](C)CC)C(=O)[C@H](Cc1ccccc1)NC(=O)[C@H](C)NC(=O)OC(C)(C)C` (Boc-AF[NAllylGly]IV-OMe) gave a pIC50 of 4.27. `CC[C@H](C)[C@H](NC(=O)CN(CC(Br)CBr)C(=O)[C@H](Cc1ccccc1)NC(=O)[C@H](C)NC(=O)OC(C)(C)C)C(=O)N[C@H](C(=O)OC)C(C)C` (stereo not given in full) (Boc-AF[X1]IV-OMe) had a pIC50 of less than 3.21. As for `C=CCN(C(=O)[C@H](Cc1ccccc1)NC(=O)[C@H](C)NC(=O)OC(C)(C)C)[C@@H](C)C(=O)N[C@H](C(=O)N[C@H](C(=O)OC)C(C)C)[C@@H](C)CC` (Boc-AF[X2]IV-OMe), the negative logarithm of the IC50 (pIC50) was less than 3.53. In turn, `CC[C@H](C)[C@H](NC(=O)CN(CC(Cl)CCl)C(=O)[C@H](Cc1ccccc1)NC(=O)[C@H](C)NC(=O)OC(C)(C)C)C(=O)N[C@H](C(=O)OC)C(C)C` (stereo not given in full) (Boc-AF[X3]IV-OMe) showed a negative-log IC50 (pIC50) of less than 3.87. On to `C=CCN(CC(=O)N[C@H](C(=O)N[C@H](C(=O)OC)C(C)C)[C@@H](C)CC)C(=O)[C@H](Cc1ccccc1)NC(=O)OC(C)(C)C` (Boc-F[NAllylGly]IV-OMe), for which the pIC50 was less than 3.77. Next, `C=CCN(CC(=O)N[C@H](C(=O)N[C@H](C(=O)OC)C(C)C)[C@@H](C)CC)C(=O)[C@H](Cc1ccccc1)NC(=O)[C@H](C)NC(=O)[C@H](C)NC(=O)[C@H](CO)NC(=O)OC(C)(C)C` (Boc-SAAF[NAllylGly]IV-OMe): less than 4.61; `C=CCN(C(=O)[C@H](Cc1ccccc1)NC(=O)[C@H](C)NC(=O)[C@H](C)NC(=O)[C@H](CO)NC(=O)OC(C)(C)C)[C@@H](C)C(=O)N[C@H](C(=O)N[C@H](C(=O)OC)C(C)C)[C@@H](C)CC` (Boc-SAAF[X2]IV-OMe): less than 3.92. Then `C=CCN(CC(=O)N[C@H](C(=O)N[C@H](C(=O)OC)C(C)C)[C@@H](C)CC)C(=O)[C@H](Cc1ccccc1)NC(=O)[C@H](C)N` (H-AF[NAllylGly]IV-OMe), with less than 3.75; and `C=CCN(CC(=O)N[C@H](C(=O)N[C@H](C(=O)OC)C(C)C)[C@@H](C)CC)C(=O)[C@@H](N)Cc1ccccc1` (H-F[NAllylGly]IV-OMe), with less than 3.69.
